Data on 34 compounds can be found in a melting point compilation (Tetko et al.; mined from patent text by program, amines drawn as free bases though some values may be those of a salt).

Some results are limits rather than exact numbers.

`COC(=O)c1ccncc1C(=O)c1ccc(-n2ccnc2)cc1` returned a melting point of 125 to 128 °C. `O=C(Oc1ccccc1)[C@H]1O[C@@H]1C1CCCCC1`: the melting point was 59 to 60 °C.

The compound `O=C(O)c1ccc(C=NS(=O)(=O)c2ccc(Cl)cc2)cc1` yielded a melting point greater than 245 °C. The compound `O=C1CC(c2ccc3oc4c(c3c2)CCCC4)CC(=O)N1` had a melting point of 184 to 193 °C. Consider `CCOc1cc2c(O)c(C(=O)O)cnc2nc1C`, for which the melting point fell in the range of 259 to 261 °C. The compound `COc1ccc(C(=O)Nc2ccc(F)c(F)c2)cc1NCc1ccccc1` registered a melting point of 176 to 178 °C. As for `N#Cc1nc(Cl)nc(N2CCS(=O)(=O)CC2)c1Cl`, the figure is 198 to 199 °C; as for `Cc1nn(C)c(C)c1CNC(=O)c1ccnc(N2CCN(Cc3ccc(F)cc3)C2=O)c1`, 179 to 181 °C. `CCOC(=O)c1cn(C2CC2)c2nc3cc(F)c(F)cc3cc2c1=O` showed a melting point of 230 °C. As for `COc1cc2c(c(C)c1C)C(O)CC2c1c[nH]cn1` (centres undefined), the figure is 184 to 189 °C. Under `COc1cccc(OC)c1C(=O)Nc1cccc2c1CCN(C)C2` stands 191 to 192 °C; under `O=C(NCCc1ccc(O)cc1)c1ccc2n1Cc1ccccc1N(C(=O)CSc1ccc(Br)cc1)C2`, 168 to 169 °C; under `CC1(C)CCC(C)(C)c2cc(-c3cc(-c4ccccc4O)ccc3C(=O)O)ccc21`, 264 to 267 °C. As for `Cc1ccc(-c2cc3ncnc(Nc4ccc5[nH]ccc5c4)c3s2)cc1`, the figure is 200 to 220 °C; as for `Cn1c(-c2ccc(C(=O)O)cc2)cc2cc3c(cc21)C(C)(C)CCC3(C)C`, 288 to 289 °C; as for `Cn1c(N)c2ncn(C3OC(CO)C(O)C3O)c2nc1=O` (centres undefined), 262 to 263 °C. The compound `CCCCCCCCCCCCCCCCCc1nc(N)nc(N)n1` displayed a melting point of 114 to 116 °C. `CCOC(=O)[C@H](Cc1ccc(-c2c(OC)cc(CN3CCSCC3)cc2OC)cc1)NC(=O)c1c(Cl)cccc1Cl` yielded a melting point of 86 to 89 °C. `CC(=O)NCc1nc2c(N)nc3ccccc3c2n1CC(C)C` gave a melting point of 214 to 218 °C. `CCCCOc1ccc(-c2nc(-c3ccc(Sc4ccccc4)cc3)nc(-c3ccc(OCCCC)cc3O)n2)c(O)c1` gave a melting point greater than 250 °C. Consider `C[C@H](NC(=O)c1cc(Cl)c(Cl)cc1C(=O)O)C(=O)N1CCC[C@H]1C(=O)O`, for which the melting point fell in the range of 134 to 137 °C. In the case of `Nc1sc2c(c1C(=O)c1ccc3ccccc3c1)CCC2`, the melting point lay within 178 to 180 °C. With `Cc1nc2c(N)nc3ccccc3c2n1OC(C)(C)C`, the melting point lay within 255 to 257 °C. `COc1cc2c(c(Cl)c1Cl)C(=O)C(C)(c1ccc(F)cc1)C2` (centres undefined) displayed a melting point of 163 to 170 °C. `O=C(CC1CCCCC1)Nc1c(Cl)ccc2nc(N3CCC(c4noc(=O)[nH]4)CC3)ccc12` had a melting point of 233 to 235 °C. As for `COCCNC(=O)c1ccc2c(c1)C=CC(C)(C)O2`, the melting point lay in the range of 57 to 60 °C. The compound `C#CCOC(C(=O)Nc1ccccc1-c1ccc(O)c(OC)c1)c1ccc(Cl)cc1` (centres undefined) came in with a melting point of 140 to 142 °C. On to `Cn1nnnc1C(C=O)=C(c1ccc(F)cc1)c1ccc(F)cc1`, for which the melting point is 135 to 137 °C. In turn, `Cc1ccc2c(c1)C(C)(O)c1ccccc1C=C2` (centres undefined) gave a melting point of 102 to 103 °C.

For the compound `CC1(CCN2C(=O)c3cccc([N+](=O)[O-])c3C2=O)OCCO1`, the melting point came to 90 °C. `COc1cc(OC)cc(-c2ncoc2-c2ccc3c(c2)NCCO3)c1` came in with a melting point of 175 to 178 °C. Consider `CC(C)N(CCC(CCN(C(C)C)C(C)C)(C(N)=O)c1c(Cl)cccc1Cl)C(C)C`, for which the melting point was in the range of 168 to 170 °C. `COc1ccc2c(c1)c(CC(=O)OCC(=O)NCCO[N+](=O)[O-])c(C)n2C(=O)c1ccc(Cl)cc1` returned a melting point of 128 to 129 °C. For `CCCc1c(OCCCOc2c(C(C)=O)ccc(OCCCCCC(=O)O)c2CCC)ccc(C(C)=O)c1O`, the melting point is 105 to 108 °C.
